Measurements taken from ChEMBL document CHEMBL1201862, “PubChem BioAssay data set” (2004).
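Exposure lasted 48 hours, with cells grown in 96-well plates and compounds tested at five concentrations. GI50 marks 50% less growth.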 Activity calls are given as the source filed them. No stated cut-off is given here; in the data, active = GI50 up to about 1.1 µM and inactive = higher.

Tests used:
Assay in all cases: NCI-60 cell line screen, 48 h
[1] = tested on: OVCAR-4
[2] = tested on: 786-0
[3] = tested on: MOLT-4
[4] = tested on: IGROV-1
[5] = tested on: PC-3
[6] = tested on: UACC-257
[7] = tested on: SF-539
[8] = tested on: HCT-15
[9] = tested on: SN12C
[10] = tested on: U-251
[11] = tested on: HCC 2998
[12] = tested on: RPMI-8226
[13] = tested on: HOP-62
[14] = tested on: UACC-62
[15] = tested on: SK-OV-3
[16] = tested on: MDA-MB-231
[17] = tested on: T47D
[18] = tested on: SNB-75
[19] = tested on: BT-549
[20] = tested on: CCRF-CEM

SMILES | GI50 [1] | GI50 [2] | GI50 [3] | GI50 [4] | GI50 [5] | GI50 [6] | GI50 [7] | GI50 [8] | GI50 [9] | GI50 [10] | GI50 [11] | GI50 [12] | GI50 [13] | GI50 [14] | GI50 [15] | GI50 [16] | GI50 [17] | GI50 [18] | GI50 [19] | GI50 [20]
O=C(/C=C/c1ccc(O)c(O)c1)OCCCc1ccccc1 | 6.67 µM (inactive) | 4.39 µM (inactive) | 0.946 µM (active) | 3.34 µM (inactive) | 8.85 µM (inactive) | 34.1 µM (inactive) | 2.45 µM (inactive) | 3.9 µM | 11.9 µM (inactive) | 11 µM (inactive) | 20.4 µM (inactive) | 13.1 µM (inactive) | 13.7 µM (inactive) | 9.84 µM (inactive) | 23.6 µM (inactive) | 11.8 µM (inactive) | 16.4 µM (inactive) | – | – | –
CC(=O)/C(=C/n1c(=S)[nH]c2ccccc21)C(=O)Nc1ccccc1C | > 100 µM (inactive) | > 100 µM (inactive) | > 100 µM (inactive) | > 100 µM (inactive) | – | > 100 µM (inactive) | > 100 µM (inactive) | > 100 µM | > 100 µM (inactive) | > 100 µM (inactive) | > 100 µM (inactive) | – | > 100 µM (inactive) | – | > 100 µM (inactive) | > 100 µM (inactive) | > 100 µM (inactive) | > 100 µM (inactive) | > 100 µM (inactive) | –
S=C(Nc1ccc2c(c1)oc1ccccc12)c1cccs1 | 30.6 µM (inactive) | 11.3 µM (inactive) | > 100 µM (inactive) | 37.1 µM (inactive) | > 100 µM (inactive) | > 100 µM (inactive) | 26.2 µM (inactive) | > 100 µM | > 100 µM (inactive) | 30.5 µM (inactive) | > 100 µM (inactive) | – | 25.4 µM (inactive) | 82.8 µM (inactive) | 37.9 µM (inactive) | 21.7 µM (inactive) | 3.37 µM (inactive) | – | 39.9 µM (inactive) | > 100 µM (inactive)
C#CCNC(Cc1c[nH]cn1)C(=O)O (stereo unspecified) | > 100 µM (inactive) | > 100 µM (inactive) | > 100 µM (inactive) | > 100 µM (inactive) | > 100 µM (inactive) | > 100 µM (inactive) | > 100 µM (inactive) | > 100 µM | > 100 µM (inactive) | > 100 µM (inactive) | – | > 100 µM (inactive) | > 100 µM (inactive) | > 100 µM (inactive) | > 100 µM (inactive) | > 100 µM (inactive) | > 100 µM (inactive) | > 100 µM (inactive) | – | > 100 µM (inactive)
OC1NC2Nc3ccccc3NC2NC1O (stereo unspecified) | > 100 µM (inactive) | > 100 µM (inactive) | > 100 µM (inactive) | > 100 µM (inactive) | > 100 µM (inactive) | > 100 µM (inactive) | > 100 µM (inactive) | > 100 µM | > 100 µM (inactive) | > 100 µM (inactive) | > 100 µM (inactive) | – | > 100 µM (inactive) | > 100 µM (inactive) | > 100 µM (inactive) | > 100 µM (inactive) | > 100 µM (inactive) | > 100 µM (inactive) | – | > 100 µM (inactive)
COc1ccc2c(c1)C/C(=C\c1cccc3ccccc13)C2=O | 67.9 µM (inactive) | 15.4 µM (inactive) | 4.89 µM (inactive) | 17.3 µM (inactive) | 16.2 µM (inactive) | – | 7.33 µM (inactive) | 4.7 µM | 8.87 µM (inactive) | 8.71 µM (inactive) | 5.04 µM (inactive) | 25.3 µM (inactive) | – | 12.5 µM (inactive) | 16.8 µM (inactive) | – | – | 12.4 µM (inactive) | 5.26 µM (inactive) | 2.65 µM (inactive)
COCCCNc1c2ccccc2nc2ccccc12 | 2.64 µM (inactive) | 3.57 µM (inactive) | 3.57 µM (inactive) | 3.56 µM (inactive) | 2.01 µM (inactive) | 2.42 µM (inactive) | 2.26 µM (inactive) | 1.3 µM | 3.24 µM (inactive) | – | 1.56 µM (inactive) | – | 3.29 µM (inactive) | 2.18 µM (inactive) | 2.78 µM (inactive) | 3.25 µM (inactive) | 2.64 µM (inactive) | – | 10.9 µM (inactive) | 5.26 µM (inactive)
O=C1C/C(=C\c2ccccc2)C(=O)c2ccccc2N1 | 20 µM (inactive) | 19.5 µM (inactive) | 45.5 µM (inactive) | 18.6 µM (inactive) | 23.9 µM (inactive) | 26.9 µM (inactive) | 20.2 µM (inactive) | 24.7 µM | 18.5 µM (inactive) | – | 19 µM (inactive) | – | 27.5 µM (inactive) | 19.2 µM (inactive) | 35.2 µM (inactive) | 23.8 µM (inactive) | 28.2 µM (inactive) | – | – | 16.7 µM (inactive)
